Results taken from patent publication US9211310B2, “Use of a Chinese medicine composition in preparing medicaments for treating secondary prevention of myocardial infarction” (TASLY PHARMACEUTICAL GROUP CO., LTD, priority 2010, dated 2015).

Tested on: patients after acute myocardial infarction
Assay: Life quality, Seattle Angina Questionnaire (SAQ), same clinical trial
Format: in vivo, human
Text: 3508 patients who were in accordance with the diagnostic standards of AMI for 28 days to 2 years and differentiated as Qi deficiency and blood stagnation syndrome by TCM were studied. 0.5 g Chinese medicine composition prepared by the method of EXAMPLE 1 (Coded as QSYQ) was administrated half an hour after meal, 3 times per day.
There were 19 questions in the Seattle angina questionnaire (SAQ), including 5 parts: physical limitation (PL), anginal stability (AS), anginal frequency (AF), treatment satisfaction (TS) and disease perception (DP). After being given necessary explanation by doctors, the questions were answered independently by patients.
They included the overall survival time, angina pectoris score, TCM symptom score and life quality score, where angina pectoris score, TCM symptom score and life quality score were evaluated at randomization, in 1st, 3rd, 6th, 9th, 12th month after treatment and 18th month after follow-up.
All evaluation results of SAQ were described during the period of observation, and Wilcoxon rank sum test was used for inter-group comparison.
The evaluation results in the SAQ were depicted in different observations, and inter-group comparison was tested by Wilcoxon Rank-sum test.

## CC(=O)Oc1ccccc1C(=O)O [Control group, aspirine]
6 months after treatment, FAS
  SAQ Question 1-3: Not limited, number of patients: 1358
  SAQ Question 1-3: Not limited, percent of patients: (77.87%)
  SAQ Question 1-3: Other reasons, number of patients: 11
  SAQ Question 1-3: Other reasons, percent of patients: (0.63%)
  SAQ Question 1-3: Severely limited, number of patients: 4
  SAQ Question 1-3: Severely limited, percent of patients: (0.23%)
  SAQ Question 1-3: Slightly limited, number of patients: 265
  SAQ Question 1-3: Slightly limited, percent of patients: (15.19%)
  SAQ Question 1-4: Mildly limited, number of patients: 314
  SAQ Question 1-4: Mildly limited, percent of patients: (18.00%)
  SAQ Question 1-4: Moderately limited, number of patients: 97
  SAQ Question 1-4: Moderately limited, percent of patients: (5.56%)
  SAQ Question 1-4: Not limited, number of patients: 731
  SAQ Question 1-4: Not limited, percent of patients: (41.92%)
  SAQ Question 1-4: Other reasons, number of patients: 13
  SAQ Question 1-4: Other reasons, percent of patients: (0.75%)
  SAQ Question 1-4: Severely limited, number of patients: 29
  SAQ Question 1-4: Severely limited, percent of patients: (1.66%)
  SAQ Question 1-4: Slightly limited, number of patients: 560
  SAQ Question 1-4: Slightly limited, percent of patients: (32.11%)
  SAQ Question 1-5: Mildly limited, number of patients: 292
  SAQ Question 1-5: Mildly limited, percent of patients: (16.75%)
  SAQ Question 1-5: Moderately limited, number of patients: 137
  SAQ Question 1-5: Moderately limited, percent of patients: (7.86%)
  SAQ Question 1-5: Not limited, number of patients: 755
  SAQ Question 1-5: Not limited, percent of patients: (43.32%)
  SAQ Question 1-5: Other reasons, number of patients: 13
  SAQ Question 1-5: Other reasons, percent of patients: (0.75%)
  SAQ Question 1-5: Severely limited, number of patients: 20
  SAQ Question 1-5: Severely limited, percent of patients: (1.15%)
  SAQ Question 1-5: Slightly limited, number of patients: 526
  SAQ Question 1-5: Slightly limited, percent of patients: (30.18%)
  SAQ Question 1-9: Mildly limited, % of cases: (19.93%)
  SAQ Question 1-9: Mildly limited, cases: 341
  SAQ Question 1-9: Moderately limited, % of cases: (20.86%)
  SAQ Question 1-9: Moderately limited, cases: 357
  SAQ Question 1-9: Not limited, % of cases: (3.39%)
  SAQ Question 1-9: Not limited, cases: 58
  SAQ Question 1-9: Other limited, % of cases: (6.20%)
  SAQ Question 1-9: Other limited, cases: 106
  SAQ Question 1-9: Severely limited, % of cases: (35.42%)
  SAQ Question 1-9: Severely limited, cases: 606
  SAQ Question 1-9: Slightly limited, % of cases: (14.20%)
  SAQ Question 1-9: Slightly limited, cases: 243
6 months after treatment, PP
  SAQ 2nd question: Clearly increased, % of cases: (0.21%)
  SAQ 2nd question: Clearly increased, cases: 3
  SAQ 2nd question: Clearly reduced, % of cases: (24.52%)
  SAQ 2nd question: Clearly reduced, cases: 355
  SAQ 2nd question: Same, % of cases: (36.46%)
  SAQ 2nd question: Same, cases: 528
  SAQ 2nd question: Slightly increased, % of cases: (2.76%)
  SAQ 2nd question: Slightly increased, cases: 40
  SAQ 2nd question: Slightly reduced, % of cases: (36.05%)
  SAQ 2nd question: Slightly reduced, cases: 522
  SAQ 3rd question: 1-2 times per week, % of cases: (36.05%)
  SAQ 3rd question: 1-2 times per week, cases: 522
  SAQ 3rd question: 1-3 times per day, % of cases: (2.76%)
  SAQ 3rd question: 1-3 times per day, cases: 40
  SAQ 3rd question: <1 time per week, % of cases: (24.52%)
  SAQ 3rd question: <1 time per week, cases: 355
  SAQ 3rd question: No onset, % of cases: (0.00%)
  SAQ 3rd question: No onset, cases: 0
  SAQ 3rd question: ≧3 times per week, % of cases: (36.46%)
  SAQ 3rd question: ≧3 times per week, cases: 528
  SAQ 3rd question: ≧4 times per day, % of cases: (0.21%)
  SAQ 3rd question: ≧4 times per day, cases: 3
  SAQ Question 1-3: Mildly limited, number of patients: 65
  SAQ Question 1-3: Mildly limited, percent of patients: (4.48%)
  SAQ Question 1-3: Moderately limited, number of patients: 14
  SAQ Question 1-3: Moderately limited, percent of patients: (0.97%)
  SAQ Question 1-3: Not limited, number of patients: 1131
  SAQ Question 1-3: Not limited, percent of patients: (78.00%)
  SAQ Question 1-3: Other reasons, number of patients: 9
  SAQ Question 1-3: Other reasons, percent of patients: (0.62%)
  SAQ Question 1-3: Severely limited, number of patients: 4
  SAQ Question 1-3: Severely limited, percent of patients: (0.28%)
  SAQ Question 1-3: Slightly limited, number of patients: 227
  SAQ Question 1-3: Slightly limited, percent of patients: (15.66%)
  SAQ Question 1-4: Mildly limited, number of patients: 266
  SAQ Question 1-4: Mildly limited, percent of patients: (18.37%)
  SAQ Question 1-4: Moderately limited, number of patients: 74
  SAQ Question 1-4: Moderately limited, percent of patients: (5.11%)
  SAQ Question 1-4: Not limited, number of patients: 613
  SAQ Question 1-4: Not limited, percent of patients: (42.33%)
  SAQ Question 1-4: Other reasons, number of patients: 12
  SAQ Question 1-4: Other reasons, percent of patients: (0.83%)
  SAQ Question 1-4: Severely limited, number of patients: 20
  SAQ Question 1-4: Severely limited, percent of patients: (1.38%)
  SAQ Question 1-4: Slightly limited, number of patients: 463
  SAQ Question 1-4: Slightly limited, percent of patients: (31.98%)
  SAQ Question 1-5: Mildly limited, number of patients: 244
  SAQ Question 1-5: Mildly limited, percent of patients: (16.86%)
  SAQ Question 1-5: Moderately limited, number of patients: 109
  SAQ Question 1-5: Moderately limited, percent of patients: (7.53%)
  SAQ Question 1-5: Not limited, number of patients: 637
  SAQ Question 1-5: Not limited, percent of patients: (44.02%)
  SAQ Question 1-5: Other reasons, number of patients: 12
  SAQ Question 1-5: Other reasons, percent of patients: (0.83%)
  SAQ Question 1-5: Severely limited, number of patients: 12
  SAQ Question 1-5: Severely limited, percent of patients: (0.83%)
  SAQ Question 1-5: Slightly limited, number of patients: 433
  SAQ Question 1-5: Slightly limited, percent of patients: (29.92%)
  SAQ Question 1-9: Mildly limited, % of cases: (20.47%)
  SAQ Question 1-9: Mildly limited, cases: 289
  SAQ Question 1-9: Moderately limited, % of cases: (21.60%)
  SAQ Question 1-9: Moderately limited, cases: 305
  SAQ Question 1-9: Not limited, % of cases: (3.54%)
  SAQ Question 1-9: Not limited, cases: 50
  SAQ Question 1-9: Other limited, % of cases: (6.37%)
  SAQ Question 1-9: Other limited, cases: 90
  SAQ Question 1-9: Severely limited, % of cases: (34.70%)
  SAQ Question 1-9: Severely limited, cases: 490
  SAQ Question 1-9: Slightly limited, % of cases: (13.31%)
  SAQ Question 1-9: Slightly limited, cases: 188
9 months after treatment, FAS
  SAQ 2nd question: 6, % of cases: (0.00%)
  SAQ 2nd question: 6, cases: 0
  SAQ 2nd question: Clearly increased, % of cases: (1.44%)
  SAQ 2nd question: Clearly increased, cases: 25
  SAQ 2nd question: Clearly reduced, % of cases: (24.17%)
  SAQ 2nd question: Clearly reduced, cases: 421
  SAQ 2nd question: Same, % of cases: (35.94%)
  SAQ 2nd question: Same, cases: 626
  SAQ 2nd question: Slightly increased, % of cases: (3.96%)
  SAQ 2nd question: Slightly increased, cases: 69
  SAQ 2nd question: Slightly reduced, % of cases: (34.50%)
  SAQ 2nd question: Slightly reduced, cases: 601
  SAQ 3rd question: 1-2 times per week, % of cases: (34.50%)
  SAQ 3rd question: 1-2 times per week, cases: 601
  SAQ 3rd question: 1-3 times per day, % of cases: (3.96%)
  SAQ 3rd question: 1-3 times per day, cases: 69
  SAQ 3rd question: <1 time per week, % of cases: (24.17%)
  SAQ 3rd question: <1 time per week, cases: 421
  SAQ 3rd question: No onset, % of cases: (0.00%)
  SAQ 3rd question: No onset, cases: 0
  SAQ 3rd question: ≧3 times per week, % of cases: (35.94%)
  SAQ 3rd question: ≧3 times per week, cases: 626
  SAQ 3rd question: ≧4 times per day, % of cases: (1.44%)
  SAQ 3rd question: ≧4 times per day, cases: 25
  SAQ Question 1-3: Mildly limited, number of patients: 58
  SAQ Question 1-3: Mildly limited, percent of patients: (3.33%)
  SAQ Question 1-3: Moderately limited, number of patients: 17
  SAQ Question 1-3: Moderately limited, percent of patients: (0.97%)
  SAQ Question 1-3: Not limited, number of patients: 1421
  SAQ Question 1-3: Not limited, percent of patients: (81.48%)
  SAQ Question 1-3: Other reasons, number of patients: 8
  SAQ Question 1-3: Other reasons, percent of patients: (0.46%)
  SAQ Question 1-3: Severely limited, number of patients: 2
  SAQ Question 1-3: Severely limited, percent of patients: (0.11%)
  SAQ Question 1-3: Slightly limited, number of patients: 238
  SAQ Question 1-3: Slightly limited, percent of patients: (13.65%)
  SAQ Question 1-4: Mildly limited, number of patients: 264
  SAQ Question 1-4: Mildly limited, percent of patients: (15.14%)
  SAQ Question 1-4: Moderately limited, number of patients: 85
  SAQ Question 1-4: Moderately limited, percent of patients: (4.87%)
